Measurements taken from US10668040B2, “Treatment of urea cycle disorders in neonates and infants” (Horizon Therapeutics, LLC, priority 2017, dated 2020).

Assay: HPN-100-009 (Example 2): urinary PAGN concentrations on first full day of dosing
Assay type: in vivo, human
Method: Assessment of Urinary PAGN Concentrations on the First Full Day of RAVICTI® Dosing.
End point description. Urinary PAGN concentration was measured through urine collection. PK Evaluable Population: all subjects from the safety population with individual concentration-time profiles that allow computation of meaningful PK parameter values. End point timeframe: Hour 0 and between 0.5 and 1 hour, 1.5 and 2.5 hours, 4 and 6 hours, 7.5 and 8.5 hours, and between 12 and 24 hours after the first dose of the day on Day 1 for stable subjects and on Day 2 for subjects in HAC.

## O=C(CCCc1ccccc1)OCC(COC(=O)CCCc1ccccc1)OC(=O)CCCc1ccccc1 [RAVICTI, benzenebutanoic acid, 1′,1″-(1,2,3-propanetriyl) ester]
Age 2 Months to <2 Years, Hour 0.5 to 1
  Urinary PAGN concentration: 4140.2 (±4398.8) μg/mL
Age 2 Months to <2 Years, Hour 1.5 to 2.5
  Urinary PAGN concentration: 3145.2 (±5044.5) μg/mL
Age 2 Months to <2 Years, Hour 4 to 6
  Urinary PAGN concentration: 5201.6 (±4546.6) μg/mL
Age 2 Months to <2 Years, Hour 7.5 to 8.5
  Urinary PAGN concentration: 4290 (±3147.2) μg/mL
Age 2 Months to <2 Years, Hour 12 to 24
  Urinary PAGN concentration: 7561.1 (±6955.7) μg/mL
Age 2 months to <2 years, Hour 0
  Urinary PAGN concentration: 3478.3 (±1775.4) μg/mL
